Experiment [1] concerns the target Myeloid Cell Leukemia 1(Mcl-1) (Homo sapiens (Human), UniProt Q07820). Put plainly: Terbium labeled Mcl-1 HTRF binding assay with Cy5-labeled BIM BH3 peptide. The following applies: obtained after recalibration of the equipment; averaged values over several runs. Here is the method: Terbium labeled Myeloid Cell Leukemia 1(Mcl-1) homogeneous time-resolved fluorescence (HTRF) binding assay utilizing the BIM BH3 peptide (H2N-(C/Cy5Mal) WIAQELRRIGDEFN-OH) as the binding partner for Mcl-1.
This assay evaluated inhibition of the BH3 domain: Mcl-1 interaction by measuring the displacement of Cy5-labeled BIM BH3 peptide (H2N—(C/Cy5Mal) WIAQELRRIGDEFN-OH) in the HTRF assay format.
The following assay and stock buffers were prepared for use in the assay: (a) Stock buffer: 10 mM Tris-HCl, pH=7.5+150 mM NaCl, filtered, sterilized, and stored at 4° C.; and (b) 1× assay buffer, where the following ingredients were added fresh to stock buffer: 2 mM dithiothreitol (DTT), 0.0025% Tween-20, 0.1 mg/mL bovine serum albumin (BSA). The 1×Tb-Mcl-1+Cy5 Bim peptide solution was prepared by diluting the protein stock solution using the 1× assay buffer (b) to 25 pM Tb-Mcl-1 and 8 nM Cy5 Bim peptide.
Using the Acoustic ECHO, 100 nL of 100× test compound(s) were dispensed into individual wells of a white 384-well Perkin Elmer Proxiplate, for a final compound concentration of lx and final DMSO concentration of 1%. Inhibitor control and neutral control (NC, 100 nL of 100% DMSO) were stamped into columns 23 and 24 of assay plate. Into each well of the plate was then dispensed 10 μL of the 1×Tb-Mcl-1+Cy5 Bim peptide solution. The plate was centrifuged with a cover plate at 1000 rpm for 1 minute, then incubated for 60 minutes at room temperature with plates covered.
The TR-FRET signal was read on an BMG PHERAStar FSX MicroPlate Reader at room temperature using the HTRF optic module (HTRF: excitation: 337 nm, light source: laser, emission A: 665 nm, emission B: 620 nm, integration start: 60 μs, integration time: […]).
The BMG PHERAStar FSX MicroPlate Reader was used to measure fluorescence intensity at two emission wavelengths—665 nm and 620 nm—and report relative fluorescence units (RFU) for both emissions, as well as a ratio of the emissions (665 nm/620 nm)*10,000. The RFU values were normalized to percent inhibition as follows:
% inhibition=((NC−IC)−(compound−IC))/(NC−IC))*100
where IC (inhibitor control, low signal)=mean signal of 1×Tb-MCl-1+Cy5 Bim peptide+inhibitor control or 100% inhibition of Mcl-1; NC (neutral control, high signal)=mean signal 1×Tb-MCl-1+Cy5 Bim peptide with DMSO only or 0% inhibition An 11-point dose response curve was generated to determine IC50 values (using GenData) based on the following equation:
Y=Bottom+(Top−Bottom)/(1+10^((IogIC50−X)*HillSlope))
where Y=% inhibition in the presence of X inhibitor concentration; Top=100% inhibition derived from the IC (mean signal of Mcl-1+inhibitor control); Bottom=0% inhibition derived from the NC (mean signal of Mcl-1+DMSO); Hillslope=Hill coefficient; and IC50=concentration of compound with 50% inhibition in relation to top/neutral control (NC).
In this assay [L]=8 nM and Kd=10 nM
(In TR-FRET formats the signal depends on donor and acceptor labels being close together.)

The test system of experiment [2] is MOLP-8 human multiple myeloma cell line. Put plainly: Caspase-Glo 3/7 assay in MOLP-8 cells. In kind it is cell-based. The following applies: Caspase-Glo 3/7, 2 hours incubation, averaged over all runs on all batches, read-out: MOLP8 AC50. The text has this:
MCL-1 is a regulator of apoptosis and is highly over-expressed in tumor cells that escape cell death. The assay evaluates the cellular potency of small-molecule compounds targeting regulators of the apoptosis pathway, primarily MCL-1, Bfl-1, Bcl-2, and other proteins of the Bcl-2 family. Protein-protein inhibitors disrupting the interaction of anti-apoptotic regulators with BH3-domain proteins initiate apoptosis.
The Caspase-Glo® 3/7 Assay is a luminescent assay that measures caspase-3 and -7 activities in purified enzyme preparations or cultures of adherent or suspension cells. The assay provides a proluminescent caspase-3/7 substrate, which contains the tetrapeptide sequence DEVD. This substrate is cleaved to release aminoluciferin, a substrate of luciferase used in the production of light. Addition of the single Caspase-Glo® 3/7 Reagent in an “add-mix-measure” format results in cell lysis, followed by caspase cleavage of the substrate and generation of a “glow-type” luminescent signal.
This assay uses the MOLP-8 human multiple myeloma cell line, which is sensitive to MCL-1 inhibition.
Cell cultures were maintained between 0.2 and 2.0×10^6 cells/mL. The cells were harvested by collection in 50 mL conical tubes. The cells were then pelleted at 500 g for 5 mins before removing supernatant and resuspension in fresh pre-warmed culture medium. The cells were counted and diluted as needed.
The assay reagent was prepared by transferring the buffer solution to the substrate vial and mixing. The solution may be stored for up to 1 week at 4° C. with negligible loss of signal.
Compounds were delivered in assay-ready plates (Proxiplate) and stored at −20° C. Assays always include 1 reference compound plate containing reference compounds. The plates were spotted with 40 nL of compounds (0.5% DMSO final in cells; serial dilution; 30 μM highest conc. 1/3 dilution, 10 doses, duplicates). The compounds were used at room temperature and 4 μL of pre-warmed media was added to all wells except column 2 and 23. The negative control was prepared by adding 1% DMSO in media. The positive control was prepared by adding the appropriate positive control compound in final concentration of 60 μM in media. The plate was prepared by adding 4 μL negative control to column 23, 4 μL positive control to column 2 and 4 μL cell suspension to all wells in the plate. The plate with cells was then incubated at 37° C. for 2 hours. The assay signal reagent is the Caspase-Glo solution described above, and 8 μL was added to all wells. The plates were then sealed and measured after 30 minutes.
The activity of a test compound was calculated as percent change in apoptosis induction as follows: […]

The structures appear in SMILES notation. pKi: −log10 of the molar value. Where two headings read alike, the source gives them in different places.

Sequence of Myeloid Cell Leukemia 1(Mcl-1) (Q07820 whole entry, the tested form may be a part): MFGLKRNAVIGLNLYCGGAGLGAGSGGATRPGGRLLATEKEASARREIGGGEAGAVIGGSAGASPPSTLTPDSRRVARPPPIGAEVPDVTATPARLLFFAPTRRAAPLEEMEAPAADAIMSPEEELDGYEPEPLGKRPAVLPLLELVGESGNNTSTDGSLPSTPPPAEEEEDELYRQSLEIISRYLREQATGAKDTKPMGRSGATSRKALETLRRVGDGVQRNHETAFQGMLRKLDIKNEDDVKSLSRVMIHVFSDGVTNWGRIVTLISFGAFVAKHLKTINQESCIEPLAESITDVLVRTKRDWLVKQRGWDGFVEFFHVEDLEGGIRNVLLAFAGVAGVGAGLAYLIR

The term pKi denotes the Ki on a negative log10 scale, so that one unit is a factor of ten. A higher pKi goes with a low Ki. The AC50 is the concentration giving half of the maximal activity seen. In experiment [1], `COCC1(COC)/C(F)=C/C[C@H](C)[C@@H](C)S(=O)(=O)NC(=O)c2ccc3c(c2)N(C[C@@H]2CCN21)C[C@@]1(CCCc2cc(Cl)ccc21)CO3` [Compound 37] had a pKi of 9.35. Further, the AC50 in experiment [2] (Homo sapiens, MOLP-8, 2 h) stood at 253 nM.

`C[C@@H]1[C@@H](C)C/C=C(\F)C(CO)(CO)N2CCC[C@H]2CN2C[C@@]3(CCCc4cc(Cl)ccc43)COc3ccc(cc32)C(=O)NS1(=O)=O` [Compound 35]: the pKi in experiment [1] was 9.85. Besides, the AC50 in experiment [2] (Homo sapiens, MOLP-8, 2 h) was 547 nM.

In the case of `C[C@@H]1[C@@H](C)C/C=C(\F)[C@H](CN2CCN3CCOC[C@@H]3C2)N2CC[C@H]2CN2C[C@@]3(CCCc4cc(Cl)ccc43)COc3ccc(cc32)C(=O)NS1(=O)=O` [Compound 28], in experiment [1], the pKi was 10.05. Also, the AC50 in experiment [2] (Homo sapiens, MOLP-8, 2 h) turned out to be 120 nM.

Compound `COCC1(CO)/C(F)=C/C[C@H](C)[C@@H](C)S(=O)(=O)NC(=O)c2ccc3c(c2)N(C[C@@H]2CCN21)C[C@@]1(CCCc2cc(Cl)ccc21)CO3` (single isomer, unassigned) [Compound 39] gave a negative logarithm of the Ki (pKi) in experiment [1] of 8.74. Further, the AC50 in experiment [2] is 630 nM.

Take `C[C@@H]1[C@@H](C)C/C=C(\F)[C@H](COCCCN2CCOCC2)N2CCC[C@H]2CN2C[C@@]3(CCCc4cc(Cl)ccc43)COc3ccc(cc32)C(=O)NS1(=O)=O` [Compound 34]: the pKi in experiment [1] is 9.68. In addition, in experiment [2] (Homo sapiens, MOLP-8, 2 h), the AC50 turned out to be 458 nM.

In the case of `COCC1(CO)/C(F)=C/C[C@H](C)[C@@H](C)S(=O)(=O)NC(=O)c2ccc3c(c2)N(C[C@@H]2CCN21)C[C@@]1(CCCc2cc(Cl)ccc21)CO3` (single isomer, unassigned) [Compound 38], the pKi in experiment [1] is 9.82. Besides, the AC50 in experiment [2] came out at 152 nM.

Turning to `C[C@@H]1[C@@H](C)C/C=C(\F)C(CO)(CO)N2CC[C@H]2CN2C[C@@]3(CCCc4cc(Cl)ccc43)COc3ccc(cc32)C(=O)NS1(=O)=O` [Compound 36], the pKi in experiment [1] was 9.64. Moreover, in experiment [2] (Homo sapiens, MOLP-8, 2 h), the AC50 was determined as 2390 nM.

Regarding `COCCOCC1(CO)/C(F)=C/C[C@H](C)[C@@H](C)S(=O)(=O)NC(=O)c2ccc3c(c2)N(C[C@@H]2CCN21)C[C@@]1(CCCc2cc(Cl)ccc21)CO3` (single isomer, unassigned) [Compound 42], the pKi in experiment [1] is 9.05. Further, the AC50 in experiment [2] stood at 730 nM.

`COCCOCC1(CO)/C(F)=C/C[C@H](C)[C@@H](C)S(=O)(=O)NC(=O)c2ccc3c(c2)N(C[C@@H]2CCN21)C[C@@]1(CCCc2cc(Cl)ccc21)CO3` (single isomer, unassigned) [Compound 40] had a pKi in experiment [1] of 9.80. The AC50 in experiment [2] was 194 nM.

The record behind these values is patent US20240067660A1, “MACROCYCLIC SPIROCYCLE DERIVATIVES AS MCL-1 INHIBITORS” (Janssen Pharmaceutica NV, priority 2019, published 2024).
